One test deals with Klebsiella aerogenes. In words: Minimum inhibitory concentration against Klebsiella aerogenes (Gram-negative) in broth. It is filed as functional.
In the next test the test system is Bacillus subtilis. Nature of the test: Minimum inhibitory concentration against Bacillus subtilis (Gram-positive) was determined by broth dilution method. The test is classed as functional. A general note: Broth dilution looks for growth in wells or tubes with falling amounts of substance.
Another test concerns Staphylococcus aureus. Nature of the test: Minimum inhibitory concentration against Staphylococcus aureus (Gram-positive) was determined by broth dilution method. It is filed as functional.
The test system of test [1] is Bacillus sp. Nature of the test: Minimum inhibitory concentration against Bacillus sphaericus (Gram-positive) was determined by broth dilution method. It is filed as functional, Lysinibacillus sphaericus. Conditions: Bacillus sp. (in: firmicutes).
Test [2] can be described thus: Minimum inhibitory concentration against Chromobacterium violaceum (Gram-negative) was determined by broth dilution method. It is filed as functional.
For test [3], the system named is Bacillus sp. In words: Minimum inhibitory concentration against Bacillus sphaericus (Gram-positive) in broth. It is filed as functional, Lysinibacillus sphaericus. Conditions: Bacillus sp. (in: firmicutes).
A further test deals with Pseudomonas aeruginosa. Nature of the test: Minimum inhibitory concentration against Pseudomonas aeruginosa (Gram-negative) by broth dilution method. It is filed as functional.

SMILES strings stand for the structures. ≈ marks a conversion by molar mass, not a printed value.

On to `COc1ccc(COc2nc(OCc3ccc(OC)cc3)nc(OCc3ccc(OC)cc3)n2)cc1`, for which the minimum inhibitory concentration (MIC) in the test with Klebsiella aerogenes came out at 25 mg/L (≈ 51.1 µM); against Bacillus subtilis, 25 mg/L (≈ 51.1 µM); against Staphylococcus aureus, 25 mg/L (≈ 51.1 µM); against Bacillus sp. [1], 25 mg/L (≈ 51.1 µM); in test [2], 6.25 mg/L (≈ 12.8 µM).

With `Cc1ccc(CNc2nc(NCc3ccc(C)cc3)nc(NCc3ccc(C)cc3)n2)cc1`, it took 50 mg/L (≈ 114 µM) to inhibit growth with Bacillus sp. [1] (MIC).

Turning to `c1ccc(COc2nc(OCc3ccccc3)nc(OCc3ccccc3)n2)cc1`, the MIC (in the test with Bacillus subtilis; with Staphylococcus aureus; against Bacillus sp. [1]; in test [2]) was 25 mg/L (≈ 62.6 µM) throughout.

Regarding `Fc1ccc(CNc2nc(NCc3ccc(F)cc3)nc(NCc3ccc(F)cc3)n2)cc1`, in the test with Bacillus sp. [3], it took 50 mg/L (≈ 111 µM) to inhibit growth (MIC).

Turning to `Clc1ccc(CNc2nc(NCc3ccc(Cl)cc3)nc(NCc3ccc(Cl)cc3)n2)cc1`, the MIC (with Bacillus sp. [1]; in test [2]) was 25 mg/L (≈ 50 µM) throughout.

On to `Clc1ccc(Cc2nc(Cc3ccc(Cl)cc3)nc(Cc3ccc(Cl)cc3)n2)cc1`, for which the MIC (against Klebsiella aerogenes; in the test with Bacillus subtilis; with Staphylococcus aureus; in the test on Bacillus sp. [1]; in test [2]) was 25 mg/L (≈ 55 µM) each time.

For `COc1ccc(CNc2nc(NCc3ccc(OC)cc3)nc(NCc3ccc(OC)cc3)n2)cc1`, the minimum inhibitory concentration (MIC) against Klebsiella aerogenes was determined as 25 mg/L (≈ 51.4 µM); in the test with Bacillus subtilis, 25 mg/L (≈ 51.4 µM); against Staphylococcus aureus, 25 mg/L (≈ 51.4 µM); with Bacillus sp. [1] it was 12.5 mg/L (≈ 25.7 µM); in test [2] it was 25 mg/L (≈ 51.4 µM).

`Fc1ccc(COc2nc(OCc3ccc(F)cc3)nc(OCc3ccc(F)cc3)n2)cc1`: the minimal inhibitory concentration (MIC) was determined as 25 mg/L (≈ 55.1 µM) in the test with Klebsiella aerogenes; 25 mg/L (≈ 55.1 µM) against Bacillus subtilis; 25 mg/L (≈ 55.1 µM) in the test on Staphylococcus aureus; 12.5 mg/L (≈ 27.6 µM) with Bacillus sp. [1]; 12.5 mg/L (≈ 27.6 µM) in test [2].

In the case of `CN[C@@H]1[C@H](O[C@H]2[C@H](O[C@H]3[C@H](O)[C@@H](O)[C@H](N=C(N)N)[C@@H](O)[C@@H]3N=C(N)N)O[C@@H](C)[C@]2(O)C=O)O[C@@H](CO)[C@H](O)[C@H]1O` [STREPTOMYCIN], the minimum inhibitory concentration (MIC) with Klebsiella aerogenes turned out to be 1.56 mg/L (≈ 2.69 µM); in the test with Bacillus subtilis, 6.25 mg/L (≈ 10.7 µM); in the test on Staphylococcus aureus, 6.25 mg/L (≈ 10.7 µM); against Bacillus sp. [1] it was 12.5 mg/L (≈ 21.5 µM); with Pseudomonas aeruginosa, 3.12 mg/L (≈ 5.37 µM); in test [2] it was 3.12 mg/L (≈ 5.37 µM).

Turning to `CC1(C)S[C@@H]2[C@H](NC(=O)Cc3ccccc3)C(=O)N2C1C(=O)O` (single isomer, unassigned) [PENICILLIN G], the MIC with Klebsiella aerogenes amounted to 6.25 mg/L (≈ 18.7 µM); against Bacillus subtilis it was 1.56 mg/L (≈ 4.67 µM); against Staphylococcus aureus, 1.56 mg/L (≈ 4.67 µM); with Bacillus sp. [1], 3.12 mg/L (≈ 9.35 µM); against Pseudomonas aeruginosa, 12.5 mg/L (≈ 37.4 µM); in test [2], 12.5 mg/L (≈ 37.4 µM).

As for `Clc1ccc(COc2nc(OCc3ccc(Cl)cc3)nc(OCc3ccc(Cl)cc3)n2)cc1`, the minimal inhibitory concentration (MIC) with Klebsiella aerogenes was 25 mg/L (≈ 49.7 µM); in the test on Bacillus subtilis it was 12.5 mg/L (≈ 24.9 µM); in the test with Staphylococcus aureus, 12.5 mg/L (≈ 24.9 µM); in the test on Bacillus sp. [1], 12.5 mg/L (≈ 24.9 µM); in test [2], 25 mg/L (≈ 49.7 µM).

For the molecule `COc1ccc(Cc2nc(Cc3ccc(OC)cc3)nc(Cc3ccc(OC)cc3)n2)cc1`, the MIC against Klebsiella aerogenes was 25 mg/L (≈ 56.6 µM); against Bacillus subtilis, 50 mg/L (≈ 113 µM); in the test on Staphylococcus aureus it was 25 mg/L (≈ 56.6 µM); with Bacillus sp. [1] it was 12.5 mg/L (≈ 28.3 µM); in test [2] it was 25 mg/L (≈ 56.6 µM).

Consider `c1ccc(CNc2nc(NCc3ccccc3)nc(NCc3ccccc3)n2)cc1`, for which the MIC (with Klebsiella aerogenes; in the test on Bacillus subtilis; in the test with Staphylococcus aureus; in the test with Bacillus sp. [1]; in test [2]) was 25 mg/L (≈ 63.1 µM) in each case.

Regarding `c1ccc(Cc2nc(Cc3ccccc3)nc(Cc3ccccc3)n2)cc1`, the MIC was found to be 6.25 mg/L (≈ 17.8 µM) against Klebsiella aerogenes; 12.5 mg/L (≈ 35.6 µM) against Bacillus subtilis; 12.5 mg/L (≈ 35.6 µM) in the test with Staphylococcus aureus; 6.25 mg/L (≈ 17.8 µM) in the test with Bacillus sp. [1]; 6.25 mg/L (≈ 17.8 µM) in test [2].

What is called MIC is the smallest concentration in the dilution series that meets the test's criterion for growth inhibition. High values mean a need for much substance, low ones inhibition by little substance.

Values taken from ChEMBL document CHEMBL1141068, “Synthesis and antibacterial activity of 2,4,6-tri substituted s-triazines” (2005).
